Test results as given in PMC9139161, “Phenolics from Chrozophora oblongifolia Aerial Parts as Inhibitors of α-Glucosidases and Advanced Glycation End Products: In-Vitro Assessment, Molecular Docking and Dynamics Studies” (Biology, 2022).
pIC50: −log10 of the molar value.

Assays:
DPPH assay = conditions: read-out: DPPH assay IC50 (Mean ± SE)
Procedure: Isolated compounds were prepared in final concentrations of 1000 µM in DMSO. Compounds that exceeded 50% inhibition at this concentration were serially diluted to determine their IC50. Ascorbic acid was used as a positive control, prepared in a concentration of 100 µM in water from which six concentrations were prepared to calculate its IC50. The method is based on the reduction of free radical of 2,2-diphenyl-1-picrylhydrazyl (DPPH). Briefly, in a 96-well plate, 20 μL of the isolated compound was incubated for 20 min in the absence of light with 180 μL of DPPH reagent (100 μM). The reduction of intensity in the color of DPPH was assessed on a microplate reader (TECAN, Männedorf, Switzerland) at 540 nm (Supplementary Table S2).

ABTS assay = conditions: concentration-response curve
Procedure: DMSO was used for the preparation of 0.5 mg/mL concentrations of isolated compounds, meanwhile, the positive control (ascorbic acid) was used to prepare a stock solution of 1000 µM in water; from which seven concentrations were prepared including 7.812, 15.625, 31.25, 62.5, 125, 250 and 500 µM to construct the concentration-response curve (Supplementary Data Figure S2). The activity of the tested compounds to scavenge the free radicals of ABTS (2,2′-azino-bis (3-ethylbenzothiazoline-6-sulfonic acid)) was assessed according to the methodology reported previously with slight modifications.
Five milliliters of aqueous solution (7 mM) of ABTS was mixed with 88 µL potassium persulfate (140 mM) and the mixture was kept in the dark for 16 h to produce ABTS radical cation (ABTS^•+). Then methanol was added to the reaction mixture to dilute the formed ABTS^•+ solution to an absorbance of 0.700 (1:50) at 690 nm.
Ten microliters of the tested compound were incubated with 190 μL of ABTS^•+ solution in a 96-well plate for thirty minutes in the dark and the absorbance was measured later using a microplate reader (TECAN, Männedorf, Switzerland) at 690 nm. Data are represented as means (n = 3) ± SD and the antioxidant effect of the tested compounds was calculated as µM Ascorbic acid equivalents by substitution in the linear regression equation (Supplementary Figure S2).

[1] = system: advanced glycation end products (AGEs) formation, BSA-fructose model; assay: AGEs formation inhibition, BSA-fructose assay; assay type: biochemical; conditions: AGEs fluorescence, 72 h, 37 °C; read-out: BSA-Fructose Model IC50 (Mean ± SE)
Procedure: (§1) The isolated compounds were prepared at final concentrations of 500 µM in DMSO in the BSA-fructose assay, and 1000 µM in all other AGEs assays. Compounds that exceeded 50% inhibition at this concentration were serially diluted to determine their IC50. All tests were conducted using quercetin (positive control).
According to the previous report, the inhibition test for AGE formation was assessed using the BSA-fructose model. Briefly, BSA (50 mg/mL) and fructose (1.25 M) (in 200 mM phosphate buffer, pH 7.4, with 0.02% sodium azide) were incubated with Sample/blank in the dark for 72 h at 37 °C, (1:1:1 by volume). On a microplate reader (Fluostar Omega BMG Labtech, Ortenberg, Germany), fluorescent AGEs were detected using excitation and emission wavelengths of 355 nm and 460 nm, respectively. Triplicates of all experiments were performed, and the percentage of AGEs inhibition was calculated.

[2] = system: advanced glycation end products (AGEs) formation, arginine-methylglyoxal model; assay: AGEs formation inhibition, arginine-methylglyoxal assay; assay type: biochemical; conditions: AGEs fluorescence, 72 h, 37 °C; read-out: Arginine-Methylglyoxal Model IC50 (Mean ± SE)
Procedure: as §1
The determination of the inhibitory effect of the isolated compounds on the formation of AGEs in the arginine methylglyoxal model was used as described previously with slight modification. Briefly, in black 96-microwell plates, a sample was incubated for 72 h at 37 °C in the dark with methylglyoxal (53.3 mM, in distilled water) and 106.6 mM arginine (in 200 mM phosphate buffer, pH 7.4, with 0.02% sodium azide), (1:1:1 v/v/v). On a microplate reader (Fluostar Omega/BMG Labtech/Germany), fluorescent AGEs were detected using excitation and emission wavelengths of 355 nm and 460 nm, respectively. Triplicates of all experiments were performed.

[3] = system: advanced glycation end products (AGEs) formation, BSA-methylglyoxal model; assay: AGEs formation inhibition, BSA-methylglyoxal assay; assay type: biochemical; conditions: AGEs fluorescence, 72 h, 37 °C; read-out: BSA-Methylglyoxal Model IC50 (Mean ± SE)
Procedure: as §1
AGEs inhibitory activity of the isolated compounds was determined according to the reported procedures with slight modification. Briefly, in black 96-microwell plates, samples were incubated for 72 h at 37 °C in the dark with bovine serum albumin (BSA, 50 mg/mL) (in 200 mM phosphate buffer, pH 7.4, with 0.02% sodium azide) and methyl-glyoxal (53.3 mM, in distilled water), (1:1:1 v/v/v). On a microplate reader (Fluostar Omega/BMG Labtech/Germany), fluorescent AGEs were detected using excitation and emission wavelengths of 355 nm and 460 nm, respectively. Triplicates of all experiments were performed.

[4] = Metal chelation assay (ferrozine); conditions: concentration-response curve
Procedure: Isolated compounds were dissolved in DMSO to prepare a concentration of 0.5 mg/mL, meanwhile, the positive control (EDTA) was used to prepare a stock solution of 100 µM in water; from which six concentrations were prepared including 5, 10, 20, 40, 50 and 80 µM to construct the dose-response curve. The assay was carried out as previously reported, with minor modifications. Briefly, in 96 wells plate (n = 6) 20 µL of the freshly prepared ferrous sulfate (0.3 mM) was mixed with 50 µL of the tested compound and incubated with 30 µL of ferrozine (0.8 mM) for 10 min at room temperature. Finally, reduction in color intensity was assessed at 540 nm using a microplate reader (Tecan, San Jose, CA, USA). Data are represented as means (n = 3) ± SD and the antioxidant effect of the extracts was calculated as µM EDTA equivalents by substitution in the linear regression equation (Supplementary Figure S4).

## O=C1O[C@H]([C@@H](O)CO)C(O)=C1O [ascorbic acid, Ascorbic acid]
DPPH assay
  pIC50: 4.55
ABTS assay; 7.8125 µM
  ABTS % inhibition: 2.8930%
ABTS assay; 15.625 µM
  ABTS % inhibition: 3.7803%
ABTS assay; 31.25 µM
  ABTS % inhibition: 5.5156%
ABTS assay; 62.5 µM
  ABTS % inhibition: 9.7291%
ABTS assay; 125 µM
  ABTS % inhibition: 16.88%
ABTS assay; 250 µM
  ABTS % inhibition: 33.5451%
ABTS assay; 500 µM
  ABTS % inhibition: 62.86%

## O=c1c(O)c(-c2ccc(O)c(O)c2)oc2cc(O)cc(O)c12 [Quercetin, quercetin, reference compound]
[1]
  pIC50: 4.21
[2]
  pIC50: 3.27
[3]
  pIC50: 3.03

## O=C(O)CN(CCN(CC(=O)O)CC(=O)O)CC(=O)O [EDTA, reference compound]
[4]; 5 µM
  Metal chelation % inhibition: 8.429%
[4]; 10 µM
  Metal chelation % inhibition: 13.464%
[4]; 20 µM
  Metal chelation % inhibition: 19.624%
[4]; 40 µM
  Metal chelation % inhibition: 41.866%
[4]; 50 µM
  Metal chelation % inhibition: 48.303%
[4]; 80 µM
  Metal chelation % inhibition: 72.307%
